From patent US20240368122A1, “JAK2 INHIBITORS AND METHODS OF USE THEREOF” (RELAY THERAPEUTICS, INC., priority 2021, published 2024)
pIC50, pKd: −log10 of the molar value.

Tests used:
[1] = system: TF1 JAK2 V617F STAT5 reporter; test: Cellular TF1 STAT5 assay (luciferase reporter), JAK2 V617F; type: cell-based; settings: TF1 JAK2 V617F, read-out: Cell PD TF1 V617F STAT5 (IC50)
How it was run: (§1)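 Compounds were dispensed as 1000× DMSO stocks (10 mM top, 1:3 steps), then V617F JAK2 TF1 cells carrying a STAT3 or STAT5 luciferase reporter were added. After 18-20 h at 37 °C, ONE-glo reagent was added and luminescence measured.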

[2] = molecular target: T1, JAK2 JH2 WT (V536-D812) [W659A, W777A, F794H solubilizing mutations] (Homo sapiens, UniProt O60674, F794H/W659A/W777A); test: Surface Plasmon Resonance (SPR) binding assay, JAK2 JH2 domain; settings: SPR, JAK2 JH2 domain
T1 construct: **JAK2 JH2 WT (V536-D812) [W659A, W777A, F794H solubilizing mutations]; C-thrombin-avi-His6; thrombin cleavage site (C); His6 (C); purchased Biortus
How it was run: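 Kinetics came from 1:1 fits of single-cycle runs at 20 °C: four 3-fold dilutions from 5 uM for JH1 or 500 nM for JH2, 60 s association, and 300 s or 1200 s dissociation respectively. Protein was freshly captured per compound in the presence of 10 uM stabilizer compound, with running buffer of pH 7.5 HEPES/NaCl/glycerol/DTT plus 2% DMSO.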

[3] = system: TF1 JAK2 V617F STAT3 reporter; test: Cellular TF1 STAT3 assay (luciferase reporter), JAK2 V617F; type: cell-based; settings: TF1 JAK2 V617F, read-out: Cell PD-TF1 JAK2 V617F STAT3 (IC50)
How it was run: as §1

T1 sequence (O60674 536-812 W659A/W777A/F794H): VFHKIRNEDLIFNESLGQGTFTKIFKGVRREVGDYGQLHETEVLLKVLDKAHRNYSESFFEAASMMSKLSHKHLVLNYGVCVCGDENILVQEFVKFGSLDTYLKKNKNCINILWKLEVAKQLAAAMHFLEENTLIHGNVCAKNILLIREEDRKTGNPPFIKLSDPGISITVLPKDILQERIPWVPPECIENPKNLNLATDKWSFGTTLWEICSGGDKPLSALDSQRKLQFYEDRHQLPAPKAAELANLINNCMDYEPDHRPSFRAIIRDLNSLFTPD

CNC(=O)c1nnc(NC(=O)C2CC2)cc1Nc1cccc(-c2cnn(C3CN(Cc4cscn4)C3)c2)c1OC [Compound 124]
pIC50 [1]: 6.30 to 7.30
pKd [2]: 8.00 to 11.00
pIC50 [3]: 6.30 to 7.30

CNC(=O)c1nnc(NC(=O)C2CC2)cc1Nc1cccc(-c2cnn(C3CN(Cc4ncsc4C)C3)c2)c1OC [Compound 125]
pIC50 [1]: 5.30 to 6.30
pKd [2]: 8.00 to 11.00
pIC50 [3]: 5.30 to 6.30

CNC(=O)c1nnc(NC(=O)C2CC2)cc1Nc1cccc(-c2cnn(C3CN(Cc4csc(C)n4)C3)c2)c1OC [Compound 126]
pIC50 [1]: 6.30 to 7.30
pKd [2]: 8.00 to 11.00
pIC50 [3]: 6.30 to 7.30

CNC(=O)c1nnc(NC(=O)C2CC2)cc1Nc1cccc(-c2cnn(C3CN(Cc4cc(F)ccc4F)C3)c2)c1OC [Compound 128]
pIC50 [1]: 5.30 to 6.30
pKd [2]: 8.00 to 11.00
pIC50 [3]: 5.30 to 6.30

CNC(=O)c1nnc(NC(=O)C2CC2)cc1Nc1cccc(-c2cnn(C3CN(Cc4cccc(F)c4F)C3)c2)c1OC [Compound 129]
pIC50 [1]: 5.30 to 6.30
pKd [2]: 7.30 to 8.00
pIC50 [3]: 5.30 to 6.30

CNC(=O)c1nnc(NC(=O)C2CC2)cc1Nc1cccc(-c2cnn(C3CN(Cc4ccccc4)C3)c2)c1OC [Compound 130]
pIC50 [1]: 5.30 to 6.30
pKd [2]: 8.00 to 11.00
pIC50 [3]: 5.30 to 6.30

CNC(=O)c1nnc(NC(=O)C2CC2)cc1Nc1cccc(-c2ccc(C(=O)N(C)Cc3cc(C#N)ccn3)c(F)c2)c1OC [Compound 131]
pIC50 [1]: 5.30 to 6.30
pKd [2]: 8.00 to 11.00
pIC50 [3]: 5.30 to 6.30

CNC(=O)c1nnc(NC(=O)C2CC2)cc1Nc1cccc(-c2ccc(C(=O)N(C)Cc3ccn(C)n3)c(F)c2)c1OC [Compound 132]
pIC50 [1]: 5.30 to 6.30
pKd [2]: 8.00 to 11.00
pIC50 [3]: 5.30 to 6.30

CNC(=O)c1nnc(NC(=O)C2CC2)cc1Nc1cccc(-c2ccc(C(=O)N(C)Cc3ccc(C)cn3)nc2)c1OC [Compound 134]
pIC50 [1]: 5.30 to 6.30
pKd [2]: 8.00 to 11.00
pIC50 [3]: 6.30 to 7.30

CNC(=O)c1nnc(NC(=O)C2CC2)cc1Nc1cccc(-c2ccc(C(=O)N(C)Cc3cc(C#N)ccn3)nc2C2CC2)c1OC [Compound 137]
pIC50 [1]: 4.00 to 5.30
pKd [2]: 7.30 to 8.00
pIC50 [3]: 4.00 to 5.30

CNC(=O)c1nnc(NC(=O)C2CC2)cc1Nc1cccc(-c2cnn(C3CN(Cc4nnc(C)s4)C3)c2)c1OC [Compound 144]
pIC50 [1]: 5.30 to 6.30
pKd [2]: 8.00 to 11.00
pIC50 [3]: 5.30 to 6.30

CNC(=O)c1nnc(NC(=O)C2CC2)cc1Nc1cccc(-c2cnc(C(=O)N(C)Cc3cc(C#N)ccn3)cc2C2CC2)c1OC [Compound 153]
pIC50 [1]: 6.30 to 7.30
pKd [2]: 8.00 to 11.00
pIC50 [3]: 6.30 to 7.30

CNC(=O)c1nnc(NC(=O)C2CC2)cc1Nc1cccc(-c2ccc(C(=O)N(C)Cc3nccc(C#N)c3F)nc2)c1OC [Compound 154]
pIC50 [1]: 4.00 to 5.30
pKd [2]: 8.00 to 11.00
pIC50 [3]: 4.00 to 5.30

CNC(=O)c1nnc(NC(=O)C2CC2)cc1Nc1ccc(C)c(-c2ccc(C(=O)N(C)Cc3cn(C)nc3C)nc2)c1OC [Compound 164]
pIC50 [1]: 6.30 to 7.30
pKd [2]: 8.00 to 11.00
pIC50 [3]: 6.30 to 7.30

CNC(=O)c1nnc(NC(=O)C2CC2)cc1Nc1cccc(-c2cn(C3CN(Cc4ccccn4)C3)nc2C(F)F)c1OC [Compound 165]
pIC50 [1]: 5.30 to 6.30
pKd [2]: 8.00 to 11.00
pIC50 [3]: 5.30 to 6.30

CNC(=O)c1nnc(NC(=O)C2CC2)cc1Nc1cccc(-c2ccc(C(=O)N(C)Cc3cnn(C)c3C)nc2)c1OC [Compound 166]
pIC50 [1]: 5.30 to 6.30
pKd [2]: 8.00 to 11.00
pIC50 [3]: 5.30 to 6.30

CNC(=O)c1nnc(NC(=O)C2CC2)cc1Nc1cccc(-c2ccc(C(=O)N(C)Cc3cccc(C)n3)nc2)c1OC [Compound 167]
pIC50 [1]: 6.30 to 7.30
pKd [2]: 8.00 to 11.00
pIC50 [3]: 6.30 to 7.30
